Measured values reported in PubChem BioAssay (NCI).
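Compound exposure: 48 hours, 5 concentrations, 96-well plates. The concentration for full growth arrest is given as TGI.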

How the values were obtained:
Test in all cases: NCI-60 cell line screen, 48 h
786-0 renal = test system: 786-0 renal
A549 NSCLC = test system: A549 NSCLC
ACHN renal = test system: ACHN renal
BT-549 breast = test system: BT-549 breast
CAKI-1 renal = test system: CAKI-1 renal
CCRF-CEM leukemia = test system: CCRF-CEM leukemia
COLO 205 colon = test system: COLO 205 colon
DU-145 prostate = test system: DU-145 prostate
EKVX NSCLC = test system: EKVX NSCLC
HCC-2998 colon = test system: HCC-2998 colon
HCT-116 colon = test system: HCT-116 colon
HCT-15 colon = test system: HCT-15 colon
HL-60(TB) leukemia = test system: HL-60(TB) leukemia
HOP-62 NSCLC = test system: HOP-62 NSCLC
HOP-92 NSCLC = test system: HOP-92 NSCLC
HS 578T breast = test system: HS 578T breast
HT29 colon = test system: HT29 colon
IGROV1 ovarian = test system: IGROV1 ovarian
K-562 leukemia = test system: K-562 leukemia
KM12 colon = test system: KM12 colon
LOX IMVI melanoma = test system: LOX IMVI melanoma
M14 melanoma = test system: M14 melanoma
MALME-3M melanoma = test system: MALME-3M melanoma
MCF7 breast = test system: MCF7 breast
MDA-MB-435 = test system: MDA-MB-435
MDA-N = test system: MDA-N
MOLT-4 leukemia = test system: MOLT-4 leukemia
NCI-H226 lung = test system: NCI-H226 lung
NCI-H23 lung = test system: NCI-H23 lung
NCI-H460 lung = test system: NCI-H460 lung
NCI-H522 lung = test system: NCI-H522 lung
NCI/ADR-RES ovarian = test system: NCI/ADR-RES ovarian
OVCAR-3 ovarian = test system: OVCAR-3 ovarian
OVCAR-4 ovarian = test system: OVCAR-4 ovarian
OVCAR-5 ovarian = test system: OVCAR-5 ovarian
OVCAR-8 ovarian = test system: OVCAR-8 ovarian
PC-3 prostate = test system: PC-3 prostate
RPMI-8226 leukemia = test system: RPMI-8226 leukemia
RXF 393 renal = test system: RXF 393 renal
SF-268 CNS = test system: SF-268 CNS
SF-295 CNS = test system: SF-295 CNS
SF-539 CNS = test system: SF-539 CNS
SK-MEL-2 melanoma = test system: SK-MEL-2 melanoma
SK-MEL-28 melanoma = test system: SK-MEL-28 melanoma
SK-MEL-5 melanoma = test system: SK-MEL-5 melanoma
SK-OV-3 ovarian = test system: SK-OV-3 ovarian
SN12C renal = test system: SN12C renal
SNB-19 CNS = test system: SNB-19 CNS
SNB-75 CNS = test system: SNB-75 CNS
SR leukemia = test system: SR leukemia
SW-620 colon = test system: SW-620 colon
T-47D breast = test system: T-47D breast
TK-10 renal = test system: TK-10 renal
U251 CNS = test system: U251 CNS
UACC-257 melanoma = test system: UACC-257 melanoma
UACC-62 melanoma = test system: UACC-62 melanoma
UO-31 renal = test system: UO-31 renal
A498 renal = test system: A498 renal
MDA-MB-231 breast = test system: MDA-MB-231 breast

O=C(c1ccccc1)c1c(C(F)(F)F)n([O-])c2cc(Cl)c(Cl)cc2[n+]1=O
TGI (786-0 renal): 0.959 µM
TGI (A549 NSCLC): 4.19 µM
TGI (ACHN renal): 2.03 µM
TGI (BT-549 breast): 4.8 µM
TGI (CAKI-1 renal): 2.93 µM
TGI (CCRF-CEM leukemia): 3.7 µM
TGI (COLO 205 colon): 18.8 µM
TGI (DU-145 prostate): 0.985 µM
TGI (EKVX NSCLC): 6.96 µM
TGI (HCC-2998 colon): 4.11 µM
TGI (HCT-116 colon): 0.989 µM
TGI (HCT-15 colon): 2.76 µM
TGI (HL-60(TB) leukemia): 2.06 µM
TGI (HOP-62 NSCLC): 0.909 µM
TGI (HOP-92 NSCLC): 19.9 µM
TGI (HS 578T breast): 2.9 µM
TGI (HT29 colon): 0.966 µM
TGI (IGROV1 ovarian): 0.984 µM
TGI (K-562 leukemia): 6.09 µM
TGI (KM12 colon): 1.08 µM
TGI (LOX IMVI melanoma): 2.46 µM
TGI (M14 melanoma): 3.2 µM
TGI (MALME-3M melanoma): 5.33 µM
TGI (MCF7 breast): 1.24 µM
TGI (MDA-MB-435): 3.08 µM
TGI (MDA-N): 4.17 µM
TGI (MOLT-4 leukemia): 1.56 µM
TGI (NCI-H226 lung): 13.7 µM
TGI (NCI-H23 lung): 1.11 µM
TGI (NCI-H460 lung): 4.53 µM
TGI (NCI-H522 lung): 1.08 µM
TGI (NCI/ADR-RES ovarian): 6.36 µM
TGI (OVCAR-3 ovarian): 0.815 µM
TGI (OVCAR-4 ovarian): 3.12 µM
TGI (OVCAR-5 ovarian): 3.41 µM
TGI (OVCAR-8 ovarian): 20.9 µM
TGI (PC-3 prostate): 4.03 µM
TGI (RPMI-8226 leukemia): 1.15 µM
TGI (RXF 393 renal): 5.52 µM
TGI (SF-268 CNS): 1.41 µM
TGI (SF-295 CNS): 7.31 µM
TGI (SF-539 CNS): 3.88 µM
TGI (SK-MEL-2 melanoma): 7.7 µM
TGI (SK-MEL-28 melanoma): 7.19 µM
TGI (SK-MEL-5 melanoma): 5.13 µM
TGI (SK-OV-3 ovarian): 8.99 µM
TGI (SN12C renal): 1.87 µM
TGI (SNB-19 CNS): 3 µM
TGI (SNB-75 CNS): 2.58 µM
TGI (SR leukemia): 0.724 µM
TGI (SW-620 colon): 6.72 µM
TGI (T-47D breast): 3.03 µM
TGI (TK-10 renal): 2.56 µM
TGI (U251 CNS): 2.71 µM
TGI (UACC-257 melanoma): 1.97 µM
TGI (UACC-62 melanoma): 8.28 µM
TGI (UO-31 renal): 4.21 µM

OCC(Cn1cncn1)(c1ccc(F)cc1F)n1cncn1 (stereo not drawn)
TGI (786-0 renal): > 100 µM
TGI (A498 renal): > 100 µM
TGI (A549 NSCLC): > 100 µM
TGI (ACHN renal): > 100 µM
TGI (BT-549 breast): > 100 µM
TGI (CAKI-1 renal): > 100 µM
TGI (CCRF-CEM leukemia): > 100 µM
TGI (COLO 205 colon): > 100 µM
TGI (DU-145 prostate): > 100 µM
TGI (HCC-2998 colon): > 100 µM
TGI (HCT-116 colon): > 100 µM
TGI (HCT-15 colon): > 100 µM
TGI (HL-60(TB) leukemia): > 100 µM
TGI (HOP-62 NSCLC): > 100 µM
TGI (HS 578T breast): > 100 µM
TGI (HT29 colon): > 100 µM
TGI (IGROV1 ovarian): > 100 µM
TGI (K-562 leukemia): > 100 µM
TGI (KM12 colon): > 100 µM
TGI (LOX IMVI melanoma): > 100 µM
TGI (M14 melanoma): > 100 µM
TGI (MALME-3M melanoma): > 100 µM
TGI (MCF7 breast): > 100 µM
TGI (MDA-MB-231 breast): > 100 µM
TGI (MDA-MB-435): > 100 µM
TGI (MDA-N): > 100 µM
TGI (MOLT-4 leukemia): > 100 µM
TGI (NCI-H226 lung): > 100 µM
TGI (NCI-H23 lung): > 100 µM
TGI (NCI-H460 lung): > 100 µM
TGI (NCI-H522 lung): > 100 µM
TGI (NCI/ADR-RES ovarian): > 100 µM
TGI (OVCAR-3 ovarian): > 100 µM
TGI (OVCAR-5 ovarian): > 100 µM
TGI (OVCAR-8 ovarian): > 100 µM
TGI (PC-3 prostate): > 100 µM
TGI (RPMI-8226 leukemia): > 100 µM
TGI (RXF 393 renal): > 100 µM
TGI (SF-268 CNS): > 100 µM
TGI (SF-295 CNS): > 100 µM
TGI (SF-539 CNS): > 100 µM
TGI (SK-MEL-2 melanoma): > 100 µM
TGI (SK-MEL-28 melanoma): > 100 µM
TGI (SK-MEL-5 melanoma): > 100 µM
TGI (SK-OV-3 ovarian): > 100 µM
TGI (SN12C renal): > 100 µM
TGI (SNB-19 CNS): > 100 µM
TGI (SNB-75 CNS): > 100 µM
TGI (SR leukemia): > 100 µM
TGI (SW-620 colon): > 100 µM
TGI (T-47D breast): > 100 µM
TGI (TK-10 renal): > 100 µM
TGI (U251 CNS): > 100 µM
TGI (UACC-257 melanoma): > 100 µM
TGI (UACC-62 melanoma): > 100 µM
TGI (UO-31 renal): > 100 µM
